This series deals with dt^sz mutant Syrian golden hamsters. The series can be described thus: Genetic hamster model of paroxysmal dystonia, triple stimulation. In kind it is in vivo, Syrian golden hamster. The procedure: Drug testing was performed at the maximal sensitivity of the hamsters for induction of dystonic attacks, i.e. between 30 and 40 days of age. Dystonic attacks were induced by a triple stimulation technique: The hamsters were taken from their home cage and placed on a balance (to determine body weight), were then injected i.p. with saline (control) or drug, and immediately placed individually in a new and empty plastic cage. Dystonic attacks started within a few minutes after placing the hamsters in the new plastic cage.
The final stage persisted for two to five hours, but rapid recovery occurred thereafter.
A first group of animals (n=8) was tested for ocurrence and severity of dystonic attacks at the age of 32-33 days after administration of vehicle (i.p.) as well as after performing the triple stimulation procedure as described above. Two or three days later, the same animals received E131-00139 i.p. and were again observed for 3 hours and again 2-3 days later the animals were re-tested after vehicle administration to serve as post dose control. […] The first stack represents the first hour of observation statring with drug administration, the second stack of bars represents the second hour of observation and the third stack the third hour.
The first (open) bar represents the control response of the animals recorded 2-3 days prior to the drug test, the black bar represents the results obtained after drug administration and the third (gray) bar represents the post drug control tested 2-3 days after the drug administration. The pre-and post test was used to exclude that a reduction of severity of stages was only due to a reduction in sensitivity for the induction of dystonic attacks is age dependent.

`O=C1N=C(N2CCCCC2)CN1c1ccc(Cl)cc1` [ELB139, 1-(4-chlorophenyl)-4-piperidinoimidazolin-2-one]: under “5 mg/kg i.p.”, the antidystonic activity result is reported as “still a significant antidystonic activity was present”. The tolerability and sedation entry (10 mg/kg i.p.) was “well tolerated and no sedation was observed”. For the same compound, where the note is “10 mg/kg i.p., total observation period 3 h”, the “severity of the dystonic attack” value is recorded as “significantly reduced”.
